Data reported in patent US5912237A, “Method of synthesis of desulfated heparin and use thereof for inhibition of elastase and cathespin” (Carolinas HealthCare System, priority 1997, dated 1999).
Where “and” joins values, the source holds several entries; their conditions need not be identical. Equal entries are not always repeated. Entries after “also recorded” stand apart in the source; their conditions may differ.

Columns and labels:
factor Xa [1] = test: Anti-factor Xa activity, plasma treated with Russell viper venom; assay type: biochemical; settings: for Anti-factor Xa Activity (test time): control plasma 35 sec.
Protocol: The 2-O-desulfated heparin from Example III was also studied to determine whether plasma dilutions of 0.1 mg/ml heparin or heparin, desulfated according to Example III, inhibited factor Xa, prolonging test time in an assay for Xa activity utilizing plasma treated with Russell viper venom.

blood coagulation [2] = test: USP anticoagulant activity
Source text: (§1) Heparin modifications HM0500393 through HM0505293 were made from the same lot of porcine intestinal mucosal sodium heparin having 173.0 units/mg USP anticoagulant activity (USP method) and approximately 150 units/mg anti-Xa activity (by amidolytic assay using commercially available chromogenic peptide substrate). Preparation of modifications began with dissolution of 50 to 100 gm heparin to 5-10% concentration in deionized water, followed by addition of sodium borohydride.

factor Xa [3] = test: Anti-Xa activity, amidolytic assay with chromogenic peptide substrate; assay type: biochemical
Source text: as §1

[4] = tested on: human leukocyte elastase (HLE)-mediated lung injury; test: HLE-mediated lung injury in hamsters, bronchoalveolar lavage; assay type: in vivo, golden Syrian hamsters; settings: hamster; for PMN in bronchoalveolar lavage fluid / Protein in bronchoalveolar lavage fluid / Total Hemoglobin in bronchoalveolar lavage fluid: intratracheal 500 μg followed by HLE 100 μg, 24 hours
Protocol: The ability of desulfated heparin to prevent human leukocyte elastase (HLE)-mediated lung injury was assessed in female golden Syrian hamsters (Harlan Industries, Indianapolis, Ind.) weighing 90 to 110 g. Phenobarbital-anesthetized hamsters were injected intratracheally with 0.25 ml sterile 0.9% saline (NS), 0.25 ml NS containing HLE (100 μg), or 0.25 ml NS containing 500 μg of heparin (Sigma) or 2-O-desulfated heparin according to Example III followed by 0.25 ml NS with HLE. Animals were killed by exsanguination 24 hours after treatment. The throat was opened and lungs dissected en bloc. The trachea was cannulated with polyethylene tubing and lavaged with five sequential aliquots of 3 ml NS. Lavage fluid was centrifuged at 200 Xg for 10 minutes. The resulting cell pellet was re-suspended in 1 ml Hank's balanced salt solution (HBSS) for performing cell count and differentials. The supernatant was assayed for protein and hemoglobin, as indices of acute injury.

[5] = tested on: human leukocyte elastase (HLE); test: HLE degradation of 3H-elastin; assay type: biochemical; settings: substrate 3H-Elastin
Protocol: Also, bovine ligament elastin was prepared according to B. C. Starcher, Anal. Biochem. (1976) 74:441-447. The elastin was assessed for purity by amino acid analysis. Its degradation was assayed using elastin radiolabeled with ^3 H-NaBH4, following the methods described in P. J. Stone, et al., Methods Enzymol. (1982) 82:588-605. The tritiated powdered elastin was homogenized and washed in phosphate buffered saline (PBS), pH 7.4 just before use to remove unincorporated radioactivity. A constant amount of human leukocyte elastase (HLE) (67 pmol) was pre-incubated with increasing amounts of 2-O-desulfated heparin (6.7-134 pmol) at 37° C. for 30 minutes in a final volume of 1.0 ml Hepes buffer (0.125 M, 0.125% Triton-X-100, pH 7.5). An aliquot of 900 microliters of each reaction mixture was incubated with 5 mg ^3 H-elastin and 100 microliters of 0.9% saline at 37° C. Solubilized peptides were separated from the elastin suspension by filtration through medium-porosity filter paper. The rate of degradation was determined by quantifying the solubilized ^3 H peptides.

cathepsin G = test: Inhibition of cathepsin G, substrate Suc-Ala-Ala-Pro-Phe-pNA; assay type: biochemical; settings: for Inhibition of cathepsin G, in words: I:E ratios of greater than 0.4
Protocol: (§2) The inhibition of HLE by 2-O-desulfated heparin of Example III was measured by incubating a constant amount of HLE (100 pmol) with increasing amounts of 2-O-desulfated heparin ([…]) for 30 minutes at 25° C. in 500 microliters of Hepes buffer (0.125 M, 0.125% Triton-X-100, pH 7.5) diluted to the final volume of 900 microliters. The remaining enzyme activity was measured by adding 100 microliters of 3 mM N-Suc-Ala-Ala-Val-NA (Sigma Chemicals, St. Louis, Mo., made in dimethylsulfoxide [DMSO]) and reading the absorbance of the proteolytically released chromogen 4-Nitroaniline at 405 nm. The percentage of inhibition was calculated based on enzyme activity without inhibitor.
The inhibition of cathepsin G by 2-O-desulfated heparin of Example III was measured as described above, except that the substrate was 3 mM Suc-Ala-Ala-Pro-Phe-pNA (Sigma Chemical, in DMSO).

human test serum = test: Activated partial thromboplastin time in vitro; assay type: biochemical; settings: for Time to Clot Formation: control 35-45
Protocol: The anti-coagulant potential of the desulfated heparin from Example III was studied by determining its effect on the activated partial thromboplastin time (APPT) in vitro. The test was performed in the usual fashion used to monitor the anti-coagulant effect of heparin clinically in patients. The test used 0.1 and 1.0 mg/ml heparin or heparin, 2-O-desulfated according to Example III, added to human test serum in vitro.

[6] = tested on: human leukocyte elastase (HLE); test: Inhibition of HLE, chromogenic substrate N-Suc-Ala-Ala-Val-NA; assay type: biochemical; settings: for Percent inhibition of HLE: substrate N-Suc-Ala-Ala-Val-NA
Protocol: The inhibition of HLE by partially N-desulfated heparin of Example I was measured by incubating a constant amount of HLE (100 pmol) with increasing amounts of partially N-desulfated heparin (10-50 pmol, I:E ratio 0.1-0.5) for 30 minutes at 25° C. in 500 microliters of Hepes buffer (0.125 M, 0.125% Triton-X-100, pH 7.5) diluted to the final volume of 900 microliters. The remaining enzyme activity was measured by adding 100 microliters of 3 mM N-Suc-Ala-Ala-Val-NA (Sigma Chemicals, St. Louis, Mo., made in dimethylsulfoxide [DMSO]) and reading the absorbance of the proteolytically released chromogen 4-Nitroaniline at 405 nm. The percentage of inhibition was calculated based on enzyme activity without inhibitor.
as §2

[7] = tested on: human polymorphonuclear leucocyte elastase (HLE); settings: cited from earlier work
blood coagulation [8] = settings: Rej et al. and Jaseja et al.; cited from earlier work
rats = settings: rat, in vivo, 10 mg/kg
[9] = plasma dilution 1:2 of 0.1 mg/ml
[10] = plasma dilution 1:10 of 0.1 mg/ml
[11] = plasma dilution 1:100 of 0.1 mg/ml
[12] = plasma dilution 1:1000 of 0.1 mg/ml
[13] = Conc. 0.1 mg/ml in human test serum
[14] = Conc. 1.0 mg/ml in human test serum

Substance | Anti-factor Xa Activity (test time) (factor Xa [1]; [9]) | Anti-factor Xa Activity (test time) (factor Xa [1]; [10]) | Anti-factor Xa Activity (test time) (factor Xa [1]; [11]) | Anti-factor Xa Activity (test time) (factor Xa [1]; [12]) | Inhibition of elastase induced injury in vivo, in words [4] | PMN in bronchoalveolar lavage fluid [4] | Protein in bronchoalveolar lavage fluid [4] | Total Hemoglobin in bronchoalveolar lavage fluid [4] | Percent inhibition of HLE ([5]; I:E ratio 0.1:1) | Percent inhibition of HLE ([5]; I:E ratio 0.2:1) | Percent inhibition of HLE ([5]; I:E ratio 0.4:1) | Percent inhibition of HLE ([5]; I:E ratio 0.5:1) | Percent inhibition of HLE ([5]; I:E ratio 1.0:1) | Percent inhibition of HLE ([5]; I:E ratio 2.0:1) | Percent inhibition of Cathepsin G (cathepsin G; I:E ratio 0.1:1) | Percent inhibition of Cathepsin G (cathepsin G; I:E ratio 0.2:1) | Percent inhibition of Cathepsin G (cathepsin G; I:E ratio 0.4:1) | Percent inhibition of Cathepsin G (cathepsin G; I:E ratio 0.8:1) | Percent inhibition of Cathepsin G (cathepsin G; I:E ratio 1.0:1) | Percent inhibition of Cathepsin G (cathepsin G; I:E ratio 2.0:1) | other results
heparin | > 480 s | > 420 s | 42 s | 32 s | potent inhibitors of elastase induced injury in vivo | 10.83 ×10^6 Cells | 41.06 mg/mL | 0.867 mg | 72% | 95% | 92% | 94% | 97% | 97% | 31% | 49% | 67% | 78% | 76% | 76% | USP Activity (anti-coagulant activity) (blood coagulation [2]; Table VII): 173.0 u/mg; USP anticoagulant activity (blood coagulation [2]; listed as porcine intestinal mucosal sodium heparin): 173.0 units/mg; USP anticoagulant activity (blood coagulation [2]; listed as starting heparin): 170 units/mg; anti-Xa activity (factor Xa [3]): approximately 150 units/mg; Inhibition of cathepsin G, in words (cathepsin G): significant inhibition of cathepsin G; Time to Clot Formation (human test serum; [13]): 80 s; Time to Clot Formation (human test serum; [14]): > 150 s; HLE inhibitory activity, in words [6]: significant inhibition of human leukocyte elastase; also recorded: significantly inhibited human leukocyte elastase (HLE) at I:E ratios of greater than 0.2; Percent inhibition of HLE ([6]; I:E ratio 0.2:1): 72% and 51.000%; Percent inhibition of HLE ([6]; I:E ratio 0.2:1, listed as H): 81% and 79%; Percent inhibition of HLE ([6]; I:E ratio 0.3:1): 83% and 91.000%; Percent inhibition of HLE ([6]; I:E ratio 0.3:1, listed as H): 88%; Percent inhibition of HLE ([6]; I:E ratio 0.4:1): 88%; Percent inhibition of HLE ([6]; I:E ratio 0.4:1, listed as H): 87% and 90%; Percent inhibition of HLE ([6]; I:E ratio 0.5:1): 93% and 97.000%; Percent inhibition of HLE ([6]; I:E ratio 0.5:1, listed as H): 87% and 91%; Percent inhibition of HLE ([6]; I:E ratio 0.6:1): 99%; Percent inhibition of HLE ([6]; I:E ratio 1:1): 98%; Percent inhibition of HLE ([6]; I:E ratio 1.5:1): 98%; Percent inhibition of HLE ([6]; I:E ratio 2:1): 98% and 99.000%
dextran [non-sulfated dextran] | – | – | – | – | – | – | – | – | – | – | – | – | – | – | – | – | – | – | – | – | Inhibition of elastase, in words [7]: is not
dextran sulfate | – | – | – | – | – | – | – | – | – | – | – | – | – | – | – | – | – | – | – | – | Inhibition of elastase, in words [7]: potent inhibitor of elastase
2-O-desulfated heparin [ODH] | 42 s | 33 s | 32 s | 32 s | potent inhibitors of elastase induced injury in vivo | 9.83 ×10^6 Cells | 65.80 mg/mL | 1.5 mg | 73% | 77% | 72% | 85% | 85% | 84% | 14% | 54% | 56% | 69% | 69% | 67% | Antifactor Xa activity, in words (factor Xa [1]): little antifactor XA activity; Inhibition of cathepsin G, in words (cathepsin G): significant inhibition of cathepsin G; Ability to prolong the APTT, in words (human test serum): little ability to prolong the APTT; Time to Clot Formation (human test serum; [13]): 38 s; Time to Clot Formation (human test serum; [14]): 42 s; HLE inhibitory activity, in words [6]: significant inhibition of human leukocyte elastase; Percent inhibition of HLE ([6]; I:E ratio 0.1:1): 20%; Percent inhibition of HLE ([6]; I:E ratio 0.2:1): 74%; Percent inhibition of HLE ([6]; I:E ratio 0.3:1): 84%; Percent inhibition of HLE ([6]; I:E ratio 0.4:1): 85%; Percent inhibition of HLE ([6]; I:E ratio 0.5:1): 84%; Percent inhibition of HLE ([6]; I:E ratio 0.6:1): 100%; Anticoagulant activity, in words (blood coagulation [8]): minimal anticoagulant activity; Alveolar hemorrhage (rats): produced no alveolar hemorrhage
